Molecular target: T1, dOR35a (Drosophila melanogaster, UniProt Q9V3Q2)
T1 construct: gene Or35a; pIB-DmOr35a transiently expressed in Sf9 cells
T1 sequence (Q9V3Q2 1-409): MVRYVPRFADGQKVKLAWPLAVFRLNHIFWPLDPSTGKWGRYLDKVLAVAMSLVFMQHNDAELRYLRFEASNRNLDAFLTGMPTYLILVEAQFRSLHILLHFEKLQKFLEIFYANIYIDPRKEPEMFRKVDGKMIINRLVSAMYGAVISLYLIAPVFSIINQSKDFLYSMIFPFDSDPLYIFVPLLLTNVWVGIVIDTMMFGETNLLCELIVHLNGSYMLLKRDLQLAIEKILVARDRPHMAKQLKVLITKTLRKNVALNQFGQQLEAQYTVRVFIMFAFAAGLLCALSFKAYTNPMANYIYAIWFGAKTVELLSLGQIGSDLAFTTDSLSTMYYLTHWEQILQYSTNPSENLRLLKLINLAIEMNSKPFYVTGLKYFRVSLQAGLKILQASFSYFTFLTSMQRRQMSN
Test: Fluo4 calcium imaging of receptor transiently expressed in Sf9 cells, concentration-response
Type: cell-based

Structure (SMILES): C=CC(O)CCCCC (centres unmarked) [1-octen-3-ol]
- EC50: 3460 nM

Structure (SMILES): CCCCCCCCO [1-octanol]
- EC50: 22.7 nM

— publication PMC2712691, “Bio-Benchmarking of Electronic Nose Sensors” (PLoS ONE, 2009)
